Data from patent US9321790B2, “Pyrimidinone derivatives as antimalarial agents” (SANOFI, priority 2012, dated 2016).
Read-outs that look alike come from different tables or passages of the source.

Tests used:
[1] = test system: Plasmodium falciparum (strain NF54); assay: Antimalarial activity test: growth of Plasmodium falciparum in infected human erythrocytes, 3H-hypoxanthine incorporation; assay type: cell-based; settings: strain NF54 sensitive to chloroquine, 72 h total incubation
Procedure: The compounds according to the invention underwent pharmacological trials to determine their inhibitory effect on the growth of Plasmodium falciparum (strain NF54 sensitive to inhibition with chloroquine) in an in vitro test using infected human erythrocytes. The growth of the parasites is measured via the incorporation of tritiated hypoxanthine compared with the incorporation in the absence of drug. The tests are performed in 96-well microplates (Falcon™ 96-well microtiter plates, ref. No. 353072) in RPMI 1640 solutions (10.44 g/l) (without hypoxanthine) with HEPES (5.94 g/l), NaHCO3 (2.1 g/l), neomycin ([…])+AlbumaxR II (5 g/l) supplemented with human erythrocytes with a final hematocrit of 1.25% and a final parasitemia of 0.15%.
The stock solution of the compounds is prepared at 10 mg/mL in DMSO. For the test, fresh solutions at the desired concentrations are prepared in RPMI medium. For the test, 100 μl of compound are mixed with 100 μl of infected blood. For the determination of the IC50 values, the compounds are tested in twofold serial dilution.
The plates are incubated at 37° C. under a humid atmosphere with 93% N2, 4% CO2 and 3% O2. After 48 hours, 50 μl of ^3H-hypoxanthine (=0.5 μCi) in RPMI medium are added to each well and incubation is continued for a further 24 hours. Next, the plates are washed with distilled water and the cell lyzate is transferred onto fiberglass filters. The filters are dried and the radioactivity is determined by liquid scintillation. The results in cpm are converted into percentages of inhibition. The inhibitory activity is given by the concentration that inhibits 50% of the growth of the parasite relative to a control without compound.

human PI3Kα = human PI3Kα (Homo sapiens (Human), UniProt P42336); assay: Human PI3Kα activity test (luciferin/luciferase ATP consumption, KinaseGlo); assay type: biochemical; settings: read-out: IC50 Human PI3Kα
human PI3Kα, sequence (P42336 whole entry): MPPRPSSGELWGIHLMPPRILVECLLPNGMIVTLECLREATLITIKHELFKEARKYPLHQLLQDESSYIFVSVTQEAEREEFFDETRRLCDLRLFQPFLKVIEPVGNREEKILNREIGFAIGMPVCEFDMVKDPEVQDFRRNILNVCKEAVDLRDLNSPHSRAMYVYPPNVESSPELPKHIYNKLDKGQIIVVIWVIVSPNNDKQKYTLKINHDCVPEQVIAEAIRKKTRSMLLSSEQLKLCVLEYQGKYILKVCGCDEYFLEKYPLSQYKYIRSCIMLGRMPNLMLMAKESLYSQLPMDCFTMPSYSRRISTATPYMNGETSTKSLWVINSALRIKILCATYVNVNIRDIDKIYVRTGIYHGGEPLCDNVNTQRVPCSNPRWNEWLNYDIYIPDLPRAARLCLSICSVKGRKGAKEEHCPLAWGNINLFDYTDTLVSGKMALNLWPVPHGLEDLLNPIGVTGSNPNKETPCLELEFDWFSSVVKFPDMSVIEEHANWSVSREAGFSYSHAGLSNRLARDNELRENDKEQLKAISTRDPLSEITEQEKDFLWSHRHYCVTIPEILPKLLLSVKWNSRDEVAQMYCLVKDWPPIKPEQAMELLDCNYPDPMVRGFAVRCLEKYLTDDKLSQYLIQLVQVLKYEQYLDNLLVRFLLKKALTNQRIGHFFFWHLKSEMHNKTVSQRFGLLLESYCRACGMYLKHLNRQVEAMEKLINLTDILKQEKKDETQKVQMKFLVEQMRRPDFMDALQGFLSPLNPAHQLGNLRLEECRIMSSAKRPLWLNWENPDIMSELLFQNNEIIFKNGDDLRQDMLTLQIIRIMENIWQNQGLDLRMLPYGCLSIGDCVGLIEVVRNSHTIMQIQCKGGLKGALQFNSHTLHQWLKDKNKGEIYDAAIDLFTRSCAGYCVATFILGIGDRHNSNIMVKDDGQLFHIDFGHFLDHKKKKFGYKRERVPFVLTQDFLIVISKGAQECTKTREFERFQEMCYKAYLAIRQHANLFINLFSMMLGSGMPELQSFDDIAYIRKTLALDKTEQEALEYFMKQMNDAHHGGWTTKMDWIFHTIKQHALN
human PI3Kα, sequence (P27986 whole entry partner): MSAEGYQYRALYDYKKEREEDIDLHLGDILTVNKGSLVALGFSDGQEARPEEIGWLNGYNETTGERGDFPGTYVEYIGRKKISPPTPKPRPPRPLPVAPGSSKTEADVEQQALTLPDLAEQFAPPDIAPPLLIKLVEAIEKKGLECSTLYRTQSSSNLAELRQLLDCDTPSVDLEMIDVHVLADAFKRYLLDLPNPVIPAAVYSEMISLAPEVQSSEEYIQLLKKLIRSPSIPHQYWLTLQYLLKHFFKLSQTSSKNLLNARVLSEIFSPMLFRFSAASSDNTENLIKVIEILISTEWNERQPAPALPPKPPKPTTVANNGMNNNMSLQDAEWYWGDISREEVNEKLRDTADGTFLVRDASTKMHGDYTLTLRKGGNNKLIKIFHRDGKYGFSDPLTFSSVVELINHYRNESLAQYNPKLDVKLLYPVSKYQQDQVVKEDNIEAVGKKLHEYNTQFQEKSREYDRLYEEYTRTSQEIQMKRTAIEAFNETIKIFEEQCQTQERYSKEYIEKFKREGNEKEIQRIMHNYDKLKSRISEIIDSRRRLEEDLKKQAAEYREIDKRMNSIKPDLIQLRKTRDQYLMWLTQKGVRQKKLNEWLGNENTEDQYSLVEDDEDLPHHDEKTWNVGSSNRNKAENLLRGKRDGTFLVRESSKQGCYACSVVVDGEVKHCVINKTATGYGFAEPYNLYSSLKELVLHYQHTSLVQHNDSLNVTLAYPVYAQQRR
Procedure: The test uses a luciferin/luciferase system to measure the concentration of ATP and its consumption during the enzymatic reaction.
After 90 minutes, the reaction is quenched by adding 20 μl/well of KinaseGlo reagent (Promega V6713). After 10 minutes in the dark, the luminescence is read using a PHERAStar microplate reader (reading at 0.8 sec/well).

[2] = PI3Kα (p110α/p85α), 50 μM PIP2, 2 μM ATP, 90 minutes
[3] = Plasmodium falciparum, Erythrocyte
[4] = known compounds of WO 2011/001 112 and WO 2011/001 113

Compound: COc1ccc(CCN2c3nc(N4C[C@@H]5C[C@H]4CO5)cc(=O)n3C[C@@]2(C)C(F)(F)F)cc1 [Compound 10, (8S)-1-[2-(4-Methoxyphenyl)ethyl]-2-methyl-7-(1S,4S)-2-oxa-5-azabicyclo[2.2.1]hept-5-yl-2-trifluoromethyl-2,3-dihydro-1H-imidazo[1,2-a]pyrimidin-5-one]
- IC50 [1]: 11 nM
- IC50 (human PI3Kα; [2]): 7200 nM

Compound: CS(=O)(=O)c1ccc(C(=O)CN2c3nc(N4C[C@@H]5C[C@H]4CO5)cc(=O)n3CC[C@H]2C(F)(F)F)cc1 [Compound 108, (8S)-9-[2-(4-Methanesulfonylphenyl)-2-oxoethyl]-2-(1S,4S)-2-oxa-5-azabicyclo[2.2.1]hept-5-yl-8-trifluoromethyl-6,7,8,9-tetrahydropyrimido[1,2-a]pyrimidin-4-one]
- IC50 [1, 3]: 86 nM
- IC50 (human PI3Kα; [2]): > 10000 nM

Compound: O=c1cc(N2C[C@@H]3C[C@H]2CO3)nc2n1CC[C@@H](C(F)(F)F)N2CCc1cccnc1 [Compound 12, (8S)-2-(1S,4S)-2-oxa-5-azabicyclo[2.2.1]hept-5-yl-9-(2-pyrid-3-ylethyl)-8-trifluoromethyl-6,7,8,9-tetrahydropyrimido[1,2-a]pyrimidin-4-one]
- IC50 [1, 3]: 9 nM
- IC50 (human PI3Kα; [2]): 2900 nM

Compound: CN(C)CCCOc1ccc(CCN2c3nc(N4CC5CCC(C4)O5)cc(=O)n3C[C@@]2(C)C(F)(F)F)cc1 [Compound 78, (S)-1-{2-[4-(3-Dimethylaminopropoxyl)phenyl]ethyl}-2-methyl-7-(8-oxa-3-azabicyclo[3.2.1]oct-3-yl)-2-trifluoromethyl-2,3-dihydro-1H-imidazo[1,2-a]pyrimidin-5-one]
- IC50 [1, 3]: 360 nM
- IC50 (human PI3Kα; [2]): 250 nM

Compound: C[C@@]1(C(F)(F)F)Cn2c(nc(N3C[C@@H]4C[C@H]3CO4)cc2=O)N1CCc1ccc(N)cc1 [Compound 32, 1-[2-(4-Aminophenyl)ethyl]-2-methyl-7-(1S,4S)-2-oxa-5-azabicyclo[2.2.1]hept-5-yl-2-((S)-trifluoromethyl)-2,3-dihydro-1H-imidazo[1,2-a]pyrimidin-5-one]
- IC50 [1]: 4 nM
- IC50 (human PI3Kα; [2]): 3700 nM

Compound: COc1ccc(C(=O)CN2c3nc(N4C[C@@H]5C[C@H]4CO5)cc(=O)n3CC[C@H]2C(F)(F)F)cn1 [Compound 45, (8S)-9-[2-(6-methoxypyrid-3-yl)-2-oxoethyl]-2-(1S,4S)-2-oxa-5-azabicyclo[2.2.1]hept-5-yl-8-trifluoromethyl-6,7,8,9-tetrahydropyrimido[1,2-a]pyrimidin-4-one]
- IC50 [1, 3]: 112 nM
- IC50 (human PI3Kα; [2]): > 10000 nM

Compound: COc1ccc(CCN2c3nc(N4CC5CCC(C4)O5)cc(=O)n3CC[C@H]2C(F)(F)F)cc1 [Compound 81, (8S)-9-[2-(4-Methoxyphenyl)ethyl]-2-(8-oxa-3-azabicyclo[3.2.1]oct-3-yl)-8-trifluoromethyl-6,7,8,9-tetrahydropyrimido[1,2-a]pyrimidin-4-one]
- IC50 (human PI3Kα; [2]): 2000 nM

Compound: O=C(CN1c2nc(N3CC4CCC(C3)O4)cc(=O)n2CC[C@H]1C(F)(F)F)c1cccnc1 [Compound 87, (8S)-2-(8-Oxa-3-azabicyclo[3.2.1]oct-3-yl)-9-(2-oxo-2-pyrid-3-ylethyl)-8-trifluoromethyl-6,7,8,9-tetrahydropyrimido[1,2-a]pyrimidin-4-one]
- IC50 (human PI3Kα; [2]): ≥ 10000 nM

Compound: COc1ccc(CCN2c3nc(N4CCOCC4)cc(=O)n3C[C@@]2(C)C(F)(F)F)cc1 [Example 1 (p. 39, WO 2011/001 112), reference compound]
- IC50 (human PI3Kα; [4]): 15 nM

Compound: O=c1cc(N2CC3CCC(C2)O3)nc2n1CC[C@@H](C(F)(F)F)N2C[C@@H](O)c1ccccc1 [Compound 80, (8S)-9-((S)-2-hydroxy-2-phenylethyl)-2-(8-oxa-3-azabicyclo[3.2.1]oct-3-yl)-8-trifluoromethyl-6,7,8,9-tetrahydropyrimido[1,2-a]pyrimidin-4-one]
- IC50 (human PI3Kα; [2]): 1600 nM

Compound: COc1ccc(CCN2c3nc(N4CCOCC4)cc(=O)n3CC[C@H]2C(F)(F)F)cc1 [Example 1 (p. 44, WO 2011/001 113), reference compound]
- IC50 (human PI3Kα; [4]): 9 nM

Compound: C[C@@]1(C(F)(F)F)Cn2c(nc(N3CCOCC3)cc2=O)N1C[C@@H](O)c1ccccc1 [Example 10 (p. 61, WO 2011/001 112), reference compound]
- IC50 (human PI3Kα; [4]): 17 nM
